The test system of assay [1] is primary human fibroblasts derived from IPF patients (LL29 cells). Kind of assay: Inhibition of fibrotic process: αSMA staining in TGF-β1-treated primary human fibroblasts from IPF patients (LL29 cells). It counts as cell-based. Particulars: Fibroblast, 96 h, LL29 cells treated with TGF-β1 (20 ng/mL), 4 days, 11-point dose-response from 10 μM to 1.87 nM, read-out: Inhibition of fibrosis EC50. The method, boiled down: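 LL29 IPF lung fibroblasts in F12 with 1% FBS, compound (11-point, 10 μM to 1.87 nM, 0.1% DMSO) plus TGF-β1 20 ng/mL for 4 days at 37° C. αSMA-positive % of SYTOX-negative cells by immunofluorescence imaging, normalized to TGF-β1 wells; EC50 from non-linear regression of triplicates.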

For assay [2], the system named is Wnt activity (Wnt-responsive Sp5 promoter-luciferase reporter in SW480 cells). As to the kind of experiment: Wnt activity screening assay: Sp5-Luc reporter gene in SW480 colon carcinoma cells. It counts as cell-based. The conditions noted are these: Homo sapiens. The procedure, abridged:
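IC50 values come from variable-slope four-parameter fits of luciferase signal normalized to DMSO wells. Stable Sp5-Luc reporter SW480 colon carcinoma cells were exposed to compounds in a 3-fold dilution series (source plates from 10 mM stock) for forty-two hours at 37 °C.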
(In general: In a reporter assay the amount or activity of a reporter protein is the signal.)

We go through 24 compounds from patent US10052331B2, “3-(3H-imidazo[4,5-C]pyridin-2-yl)-1H-pyrazolo[3,4-C]pyridine and therapeutic uses thereof” (Samumed, LLC, priority 2014, dated 2018).

One may read the EC50 as the concentration that produces a half-maximal response. As usually defined, the IC50 is the concentration needed to halve the response being measured. The low end stands for inhibition by little substance, the high end for a need for much substance.

A value given as a limit tells only on which side of the number the result lay.

For the compound `O=C(Nc1cncc(-c2cc3c(-c4nc5c(-c6ccc(F)s6)cncc5[nH]4)n[nH]c3cn2)c1)C1CCC1` [Compound 332, N-(5-(3-(7-(5-Fluorothiophen-2-yl)-3H-imidazo[4,5-c]pyridin-2-yl)-1H-pyrazolo[3,4-c]pyridin-5-yl)pyridin-3-yl)cyclobutanecarboxamide], the EC50 in assay [1] was 1050 nM. In assay [2], the IC50 was 32.8 nM.

With `CS(=O)(=O)NCc1cc(F)cc(-c2cncc3[nH]c(-c4n[nH]c5cnc(-c6cncc(NC(=O)C7CCC7)c6)cc45)nc23)c1` [Compound 410, N-(5-(3-(7-(3-Fluoro-5-(methylsulfonamidomethyl)phenyl)-3H-imidazo[4,5-c]pyridin-2-yl)-1H-pyrazolo[3,4-c]pyridin-5-yl)pyridin-3-yl)cyclobutanecarboxamide], the EC50 in assay [1] stood at 475 nM. Besides, in assay [2], half-maximal inhibition (IC50) was put at 29.6 nM.

`CN1CCN(c2cncc3[nH]c(-c4n[nH]c5cnc(-c6cncc(N)c6)cc45)nc23)CC1` [Compound 211, 5-(3-(7-(4-Methylpiperazin-1-yl)-3H-imidazo[4,5-c]pyridin-2-yl)-1H-pyrazolo[3,4-c]pyridin-5-yl)pyridin-3-amine]: in assay [1], the EC50 is no more than 9 nM. This compound also came in with a 50% inhibitory concentration (IC50) in assay [2] greater than 10000 nM.

`CCCCC(=O)Nc1cncc(-c2cc3c(-c4nc5c(-c6cc(F)cc(NCCN(C)C)c6)cncc5[nH]4)n[nH]c3cn2)c1` [Compound 434, N-(5-(3-(7-(3-((2-(Dimethylamino)ethyl)amino)-5-fluorophenyl)-3H-imidazo[4,5-c]pyridin-2-yl)-1H-pyrazolo[3,4-c]pyridin-5-yl)pyridin-3-yl)pentanamide]: the EC50 in assay [1] turned out to be 8260 nM. Also, it took 227 nM to reach half-maximal inhibition in assay [2] (IC50).

For the compound `CCNCc1cncc(-c2cc3c(-c4nc5c(-c6ccccn6)cncc5[nH]4)n[nH]c3cn2)c1` [Compound 136, N-((5-(3-(7-(Pyridin-2-yl)-3H-imidazo[4,5-c]pyridin-2-yl)-1H-pyrazolo[3,4-c]pyridin-5-yl)pyridin-3-yl)methyl)ethanamine], the concentration for a half-maximal effect (EC50) in assay [1] is 598 nM. In assay [2], this compound had a 50% inhibitory concentration (IC50) of 562 nM.

Regarding `O=C(CC1CCNCC1)Nc1cncc(-c2cc3c(-c4nc5c(-c6cccc(F)c6)cncc5[nH]4)n[nH]c3cn2)c1` [Compound 893, N-(5-(3-(7-(3-Fluorophenyl)-3H-imidazo[4,5-c]pyridin-2-yl)-1H-pyrazolo[3,4-c]pyridin-5-yl)pyridin-3-yl)-2-(piperidin-4-yl)acetamide], the EC50 in assay [1] was no less than 9990 nM. Moreover, the half-maximal inhibitory concentration (IC50) in assay [2] was greater than 10000 nM.

Regarding `CN(C)c1cncc(-c2cc3c(-c4nc5c(N6CCCCC6)cncc5[nH]4)n[nH]c3cn2)c1` [Compound 163, N,N-Dimethyl-5-(3-(7-(piperidin-1-yl)-3H-imidazo[4,5-c]pyridin-2-yl)-1H-pyrazolo[3,4-c]pyridin-5-yl)pyridin-3-amine], the EC50 in assay [1] amounted to 38 nM. Moreover, in assay [2], inhibition was half-maximal at 310 nM (IC50).

`CCNCc1cncc(-c2cc3c(-c4nc5c(-c6ccoc6)cncc5[nH]4)n[nH]c3cn2)c1` [Compound 266, N-((5-(3-(7-(Furan-3-yl)-3H-imidazo[4,5-c]pyridin-2-yl)-1H-pyrazolo[3,4-c]pyridin-5-yl)pyridin-3-yl)methyl)ethanamine]: the EC50 in assay [1] is no less than 9990 nM. This compound yielded an IC50 in assay [2] greater than 10000 nM.

Turning to `CCC(=O)Nc1cncc(-c2cc3c(-c4nc5c(N6CCCCC6)cncc5[nH]4)n[nH]c3cn2)c1` [Compound 157, N-(5-(3-(7-(Piperidin-1-yl)-3H-imidazo[4,5-c]pyridin-2-yl)-1H-pyrazolo[3,4-c]pyridin-5-yl)pyridin-3-yl)propionamide], in assay [1], the EC50 is 1560 nM. Besides, inhibition in assay [2] was half-maximal at 866 nM (IC50).

With `CN(C)Cc1cncc(-c2cc3c(-c4nc5c(-c6cccs6)cncc5[nH]4)n[nH]c3cn2)c1` [Compound 299, N,N-Dimethyl-1-(5-(3-(7-(thiophen-2-yl)-3H-imidazo[4,5-c]pyridin-2-yl)-1H-pyrazolo[3,4-c]pyridin-5-yl)pyridin-3-yl)methanamine], the EC50 in assay [1] was no more than 9 nM. Besides, the half-maximal inhibitory concentration (IC50) in assay [2] worked out at 588 nM.

`CN(C)CCNc1cc(F)cc(-c2cncc3[nH]c(-c4n[nH]c5cnc(-c6cncc(N(C)C)c6)cc45)nc23)c1` [Compound 423]: in assay [1], the EC50 was found to be 2030 nM. The compound also came in with a 50% inhibitory concentration (IC50) in assay [2] of 482 nM.

Consider `CC(C)C(=O)Nc1cncc(-c2cc3c(-c4nc5c(N6CCN(C)CC6)cncc5[nH]4)n[nH]c3cn2)c1` [Compound 217, N-(5-(3-(7-(4-Methylpiperazin-1-yl)-3H-imidazo[4,5-c]pyridin-2-yl)-1H-pyrazolo[3,4-c]pyridin-5-yl)pyridin-3-yl)isobutyramide], for which the EC50 in assay [1] was no less than 9990 nM. The compound also came in with a half-inhibitory concentration (IC50) in assay [2] of 557 nM.

`CCCC(=O)Nc1cncc(-c2cc3c(-c4nc5c(-c6ccccc6F)cncc5[nH]4)n[nH]c3cn2)c1` [Compound 69, N-(5-(3-(7-(2-Fluorophenyl)-3H-imidazo[4,5-c]pyridin-2-yl)-1H-pyrazolo[3,4-c]pyridin-5-yl)pyridin-3-yl)butyramide]: the half-maximal effective concentration (EC50) in assay [1] was found to be 44 nM. In assay [2], the IC50 was 70.3 nM.

On to `Cc1ccc(-c2cncc3[nH]c(-c4n[nH]c5cnc(-c6cncc(NC(=O)C7CCCC7)c6)cc45)nc23)s1` [Compound 359, N-(5-(3-(7-(5-Methylthiophen-2-yl)-3H-imidazo[4,5-c]pyridin-2-yl)-1H-pyrazolo[3,4-c]pyridin-5-yl)pyridin-3-yl)cyclopentanecarboxamide], for which the EC50 in assay [1] turned out to be 689 nM. Further, the 50% inhibitory concentration (IC50) in assay [2] stood at 33.5 nM.

For the compound `CCNCc1cncc(-c2cc3c(-c4nc5c(-c6ccccc6F)cncc5[nH]4)n[nH]c3cn2)c1` [Compound 58, N-((5-(3-(7-(2-Fluorophenyl)-3H-imidazo[4,5-c]pyridin-2-yl)-1H-pyrazolo[3,4-c]pyridin-5-yl)pyridin-3-yl)methyl)ethanamine], the half-maximal effective concentration (EC50) in assay [1] was found to be 41 nM. Also, 40.2 nM corresponded to half-maximal inhibition in assay [2] (IC50).

For the compound `Fc1cccc(-c2cncc3[nH]c(-c4n[nH]c5cnc(-c6cncc(CN7CCC(F)(F)C7)c6)cc45)nc23)c1` [Compound 25, 5-(5-((3,3-Difluoropyrrolidin-1-yl)methyl)pyridin-3-yl)-3-(7-(3-fluorophenyl)-3H-imidazo[4,5-c]pyridin-2-yl)-1H-pyrazolo[3,4-c]pyridine], the half-maximal effective concentration (EC50) in assay [1] was no more than 9 nM. Also, inhibition in assay [2] was half-maximal at 31.1 nM (IC50).

For the compound `CS(=O)(=O)NCc1cc(F)cc(-c2cncc3[nH]c(-c4n[nH]c5cnc(-c6cncnc6)cc45)nc23)c1` [Compound 416, N-(3-Fluoro-5-(2-(5-(pyrimidin-5-yl)-1H-pyrazolo[3,4-c]pyridin-3-yl)-3H-imidazo[4,5-c]pyridin-7-yl)benzyl)methanesulfonamide], in assay [1], the concentration giving a half-maximal response (EC50) is no less than 9990 nM. Also, the IC50 in assay [2] was greater than 10000 nM.

As for `c1ccc(CNCc2cncc(-c3cc4c(-c5nc6c(-c7ccsc7)cncc6[nH]5)n[nH]c4cn3)c2)cc1` [Compound 257, N-Benzyl-1-(5-(3-(7-(thiophen-3-yl)-3H-imidazo[4,5-c]pyridin-2-yl)-1H-pyrazolo[3,4-c]pyridin-5-yl)pyridin-3-yl)methanamine], the EC50 in assay [1] worked out at 2630 nM. The same compound came in with an IC50 in assay [2] of 653 nM.

For `O=C(Nc1cncc(-c2cc3c(-c4nc5c(-c6cccs6)cncc5[nH]4)n[nH]c3cn2)c1)C1CC1` [Compound 305, N-(5-(3-(7-(Thiophen-2-yl)-3H-imidazo[4,5-c]pyridin-2-yl)-1H-pyrazolo[3,4-c]pyridin-5-yl)pyridin-3-yl)cyclopropanecarboxamide], the EC50 in assay [1] is greater than 10000 nM. Also, the IC50 in assay [2] turned out to be 35.1 nM.

As to `CN(C)Cc1cncc(-c2cc3c(-c4nc5c(N6CCCCC6)cncc5[nH]4)n[nH]c3cn2)c1` [Compound 169, N,N-Dimethyl-1-(5-(3-(7-(piperidin-1-yl)-3H-imidazo[4,5-c]pyridin-2-yl)-1H-pyrazolo[3,4-c]pyridin-5-yl)pyridin-3-yl)methanamine], in assay [1], the half-maximal effective concentration (EC50) was 74 nM. The 50% inhibitory concentration (IC50) in assay [2] came to 122 nM.

With `CN1CCN(c2cncc3[nH]c(-c4n[nH]c5cnc(-c6cncc(NC(=O)C7CCCC7)c6)cc45)nc23)CC1` [Compound 229, N-(5-(3-(7-(4-Methylpiperazin-1-yl)-3H-imidazo[4,5-c]pyridin-2-yl)-1H-pyrazolo[3,4-c]pyridin-5-yl)pyridin-3-yl)cyclopentanecarboxamide], in assay [1], the EC50 is no less than 9990 nM. The same compound registered a 50% inhibitory concentration (IC50) in assay [2] of 440 nM.

In the case of `O=C(Nc1cncc(-c2cc3c(-c4nc5c(-c6ccccn6)cncc5[nH]4)n[nH]c3cn2)c1)c1ccccc1` [Compound 141, N-(5-(3-(7-(Pyridin-2-yl)-3H-imidazo[4,5-c]pyridin-2-yl)-1H-pyrazolo[3,4-c]pyridin-5-yl)pyridin-3-yl)benzamide], the half-maximal effective concentration (EC50) in assay [1] was no less than 9990 nM. For the same compound, the concentration for half-maximal inhibition (IC50) in assay [2] was greater than 10000 nM.

On to `O=C(Nc1cncc(-c2cc3c(-c4nc5c(N6CCCCC6)cncc5[nH]4)n[nH]c3cn2)c1)C1CC1` [Compound 175, N-(5-(3-(7-(Piperidin-1-yl)-3H-imidazo[4,5-c]pyridin-2-yl)-1H-pyrazolo[3,4-c]pyridin-5-yl)pyridin-3-yl)cyclopropanecarboxamide], for which the half-maximal effective concentration (EC50) in assay [1] was no more than 9 nM. In assay [2], this compound gave an IC50 of 820 nM.

Turning to `c1ccc(CNCc2cncc(-c3cc4c(-c5nc6c(-c7cccnc7)cncc6[nH]5)n[nH]c4cn3)c2)cc1` [Compound 101, N-Benzyl-1-(5-(3-(7-(pyridin-3-yl)-3H-imidazo[4,5-c]pyridin-2-yl)-1H-pyrazolo[3,4-c]pyridin-5-yl)pyridin-3-yl)methanamine], in assay [1], the EC50 is no less than 9990 nM. Also, it took 294 nM to reach half-maximal inhibition in assay [2] (IC50).
